Assay results: article PMC4460186, “Fast and reliable production, purification and characterization of heat-stable, bifunctional enzyme chimeras” (AMB Express, 2015)

What was measured:
CB = tested on: T1, CB; assay: 4-nitrophenol release, absorbance at […] nm; format: biochemical, uncultured archaeon; details: 10 mM NaPO4 pH 7.0, 80°C (standard assay); read-out: Substrate, 4-NP-β-D-GP / KM
T1 construct: gene bgl1; single-polypeptide fusion HIS-Cel5A-Bgl1-STREP, Ser-Ser linker, tags kept; from E. coli M15[pREP4]; truncated STREP-tagged Bgl1 degradation products remain in eluate; with Endoglucanase

BC = tested on: T2, BC; assay: 4-nitrophenol release, absorbance at […] nm; format: biochemical, uncultured archaeon; details: 10 mM NaPO4 pH 7.0, 80°C (standard assay); read-out: Substrate, 4-NP-β-D-GP / KM
T2 construct: gene bgl1; single-polypeptide fusion HIS-Bgl1-Cel5A-STREP, Ser-Ser linker, tags kept; from E. coli M15[pREP4]; with Endoglucanase

Work on `O=[N+]([O-])c1ccc(O[C@@H]2O[C@H](CO)[C@@H](O)[C@H](O)[C@H]2O)cc1` [4-NP-β-D-GP, 4-nitrophenyl-β-D-glucopyranoside] yielded a Km (CB) of 530 µM and a Km (BC) of 530 µM.
